“Also recorded” adds a separate entry of the source.
Columns and labels:
IDO1 [1] = target: T1, IDO1 (Mus musculus, UniProt P28776); assay: Comparison of tracer uptake in high (M109) and low (CT26) IDO1 expressing tumor models (Example 8); assay type: in vivo; details: BALB/c mice given vehicle for 5 days, tracer i.v. 1 hour before PET, CT26 low IDO1 expression
T1 construct: The M109 tumor model is generated from a murine lung carcinoma cell line and expresses high levels of IDO1; from tissue; host or cells: subcutaneous M109 (murine lung carcinoma) tumours in BALB/c mice, imaged in vivo
From the text: In order to compare the ability to differentiate between differences in expression levels of IDO1 we imaged an additional mouse model carrying CT26 tumors. The CT26 tumor model is generated from a murine colorectal carcinoma cell line and expresses lower levels of IDO1 than the M109 model.

[2] = PET biodistribution in non-human primate (Example 9); assay type: in vivo; details: male cynomolgus monkey, 1.2 mCi i.v., 5 full body PET scans
Procedure: A male cynomolgus monkey (3.5 kg) was anesthetized via a cocktail of 0.02 mg/kg Atropine, and 5 mg/kg Telazol, 0.01 mg/kg Buprenorphine and maintained with 1-2% isoflurane for the duration of the study. Body temperature was maintained at ˜37° C. using an external circulating water bed to prevent hypothermia during imaging. The monkey was intubated and a saphenous vein catheter was inserted to allow for radiotracer injection. […] The axial field of view in the PET system is 7.6 cm. With this limitation, images were acquired over 7 distinct bed positions to cover the full body with an overlap of 1.5 cm between beds. Prior to emission imaging a 10 minute transmission image was acquired for each bed position for attenuation correction of the final PET images, immediately following collection of the final transmission image, the bed was returned to position 1 and the radiotracer was injected via the saphenous vein catheter concurrently with the start of the first emission scan. For emission, a total of 5 full body scans were acquired, using 5 min emission acquisitions for each bed position. Images were reconstructed using a MAP algorithm with attenuation correction. Bed positions were stitched together for a full body image using a stitching software tool developed in house and PET and MRI images were co-registered using AMIDE software. The final images were visually inspected to note areas of high tracer accumulation and evaluate biodistribution and background signal.

IDO1 [3] = target: T1, IDO1; assay: In-vivo PET imaging in M109 xenograft mice after treatment with the unlabeled IDO1 inhibitor (Example 6); details: 6, 60, 150 mg/kg PO once daily for 4 or 5 days
Procedure: Dosing and treatment was established based on known pharmacological effect and treatment was administered PO, once daily, for 4 or 5 days. All animals were received a PET scan post-treatment with the last dose of (R)—N-(4-chlorophenyl)-2-((1S,4)-4-(6-fluoroquinolin-4-yl)cyclohexyl)propanamide or vehicle administered 2 hours before PET imaging. […] The exact injected dose was calculated by subtracting the decay corrected activity of the residual in the syringe after injection from the total measured dose in the syringe prior to injection. For PET imaging, the mice were anesthetized with isoflurane and placed into a custom animal holder with capacity for 4 animals. Body temperature was maintained with a heating pad and anesthesia was maintained with 1.5% isoflurane for the duration of the imaging PET imaging was performed on a dedicated microPET® F120™ scanner and a F220™ scanner (Siemens Preclinical Solutions, Knoxville, Tenn.). A 10 minute transmission scan was performed using a ^57Co source for attenuation correction of the final PET images and followed by a 10 min static emission scan. Either before or after PET imaging a CT scan (X-SPECT, Gamma Medica) or MRI scan (Bruker) was performed for anatomical orientation during image analysis. PET images were reconstructed using a maximum a posteriori (MAP) algorithm with attenuation correction using the collected transmission images. Image analysis was performed using the image analysis software AMIDE PET images were co-registered with their corresponding CT or MRI images and regions of interest (ROIs) were manually drawn around tumor boundaries and muscle using the CT or MRI images as the anatomical guidelines. The outcome measure percentage injected dose/g tissue (% ID/g) was obtained from the ROIs volume and the calculated injected activity decay corrected to the beginning of the emission scan.

IDO1 [4] = target: T1, IDO1; assay: In-vivo PET imaging in M109 xenograft mice at baseline and after treatment with an IDO1 inhibitor (Example 7); details: 6, 60, 150 mg/kg PO once daily for 5 days
Procedure: All mice underwent 2 separate PET scans. The first was a baseline PET scan before treatment began and the second was a post treatment scan with either the IDO1 inhibitor or vehicle. Treatment was administered PO once daily for 5 days with the last dose administered 2 hours prior to the post-treatment PET scan. […] There were no difference in tracer uptake at baseline in the M109 tumors between any of the groups.

[5] = listed as 18F—(R)—N-(4-chlorophenyl)-2-((1S,4S)-4-(6-fluoroquinolin-4-yl)cyclohexyl)propan
[6] = listed as [^18F](R)—N-(4-chlorophenyl)-2-((1S,4S)-4-(6-fluoroquinolin-4-yl)cyclohexyl)prop

T1 sequence (P28776 whole entry): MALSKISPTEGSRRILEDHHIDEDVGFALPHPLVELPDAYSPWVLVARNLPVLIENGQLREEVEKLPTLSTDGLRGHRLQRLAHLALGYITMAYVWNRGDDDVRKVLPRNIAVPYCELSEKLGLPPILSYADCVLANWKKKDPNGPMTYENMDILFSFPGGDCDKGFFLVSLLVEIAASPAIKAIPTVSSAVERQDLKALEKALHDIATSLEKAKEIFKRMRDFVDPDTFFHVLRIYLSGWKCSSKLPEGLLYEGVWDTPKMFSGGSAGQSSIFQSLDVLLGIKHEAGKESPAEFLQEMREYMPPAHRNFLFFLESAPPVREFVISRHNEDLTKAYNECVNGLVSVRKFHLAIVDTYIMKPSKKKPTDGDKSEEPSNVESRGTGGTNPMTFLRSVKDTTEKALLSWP

Row | Background signal in the rest of the body [2, 5] | Areas of tracer accumulation (biodistribution) [2, 6] | Background signal in the rest of the body [2, 6] | Compound | Tracer uptake (% ID/g) in M109 tumors compared to CT26 tumors (IDO1 [1]) | Areas of tracer accumulation (biodistribution) [2, 5] | Tracer uptake (% ID/g) in M109 tumors compared to vehicle (IDO1 [3]; last dose 2 hours before PET, [18F] tracer i.v. 1 hour before imaging) | Tracer uptake in muscle reference tissue (IDO1 [3]; muscle used as reference region for non-specific binding) | Tracer uptake in muscle reference tissue, baseline vs post-treatment (IDO1 [4]) | Tracer uptake in M109 tumors after treatment, compared to vehicle group and baseline (IDO1 [4]; last dose 2 hours before post-treatment PET scan)
1 | little to no background | accumulated in the liver and gallbladder | minimal | C[C@@H](C(=O)Nc1ccc(Cl)cc1)[C@H]1CC[C@@H](c2ccnc3ccc([18F])cc32)CC1 [Example 5, [^18F](R)—N-(4-chlorophenyl)-2-((1S, 4S)-4-(6-fluoroquinolin-4-yl)cyclohexyl)propanamide] | higher % ID/g was observed in M109 mouse xenograft tumors compared to % ID/g in CT26 mouse xenograft tumors; also recorded: increased in M109 tumors | accumulated in expected clearance organs such as liver and gallbladder | – | – | – | –
2 | – | – | – | C[C@@H](C(=O)Nc1ccc(Cl)cc1)C1CCC(c2ccnc3ccc(F)cc23)CC1 (stereo partly drawn) [(R)—N-(4-chlorophenyl)-2-((1S,4S)-4-(6-fluoroquinolin-4-yl)cyclohexyl)propanamide] | – | – | dose-dependent decrease in tracer uptake; also recorded: dose-dependent displacement of the tracer | no effect on the tracer; also recorded: no effect on the uptake in muscle tissue | unaffected by treatment | dose-dependent decrease in tracer uptake; also recorded: dose-dependent displacement of the tracer
